In PubChem BioAssay AID2060491 (Molecular Pharmacology Branch, DTP, NCI, 2025):

System: 857933-349-R-J2-PDC complex spheroids, viability
Experiment: Anticancer human tumor 857933-349-R-J2-PDC patient-derived colon adenocarcinoma cell line growth inhibition [GQUAD]
Conditions: for IC50: curve of first compound; for viability, T/C: stronger effect = lower value
Outline: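 Viability of tumor cells grown as complex spheroids with endothelial and stromal cells, exposed to drug combinations. Top concentration at or near clinical Cmax (else 10 microM), diluted in half-log increments.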

[1] = second compound 0.0316 µM, first compound 0.0316 µM
[2] = second compound 0.0316 µM, first compound 0.1 µM
[3] = second compound 0.0316 µM, first compound 0.316 µM
[4] = second compound 0.0316 µM, first compound 1 µM
[5] = second compound 0.0316 µM, first compound 3.16 µM
[6] = second compound 0.0316 µM, first compound 10 µM
[7] = second compound 0.1 µM, first compound 0.0316 µM
[8] = second compound 0.1 µM, first compound 0.1 µM
[9] = second compound 0.1 µM, first compound 0.316 µM
[10] = second compound 0.1 µM, first compound 1 µM
[11] = second compound 0.1 µM, first compound 3.16 µM
[12] = second compound 0.1 µM, first compound 10 µM
[13] = second compound 0.316 µM, first compound 0.0316 µM
[14] = second compound 0.316 µM, first compound 0.1 µM
[15] = second compound 0.316 µM, first compound 0.316 µM
[16] = second compound 0.316 µM, first compound 1 µM
[17] = second compound 0.316 µM, first compound 3.16 µM
[18] = second compound 0.316 µM, first compound 10 µM
[19] = second compound 1 µM, first compound 0.0316 µM
[20] = second compound 1 µM, first compound 0.1 µM
[21] = second compound 1 µM, first compound 0.316 µM
[22] = second compound 1 µM, first compound 1 µM
[23] = second compound 1 µM, first compound 3.16 µM
[24] = second compound 1 µM, first compound 10 µM
[25] = second compound 3.16 µM, first compound 0.0316 µM
[26] = second compound 3.16 µM, first compound 0.1 µM
[27] = second compound 3.16 µM, first compound 0.316 µM
[28] = second compound 3.16 µM, first compound 1 µM
[29] = second compound 3.16 µM, first compound 3.16 µM
[30] = second compound 3.16 µM, first compound 10 µM
[31] = second compound 10 µM, first compound 0.0316 µM
[32] = second compound 10 µM, first compound 0.1 µM
[33] = second compound 10 µM, first compound 0.316 µM
[34] = second compound 10 µM, first compound 1 µM
[35] = second compound 10 µM, first compound 3.16 µM
[36] = second compound 10 µM, first compound 10 µM
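Note: spheroids exposed to compounds for one week before readout.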
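Throughout, for viability, T/C: percent viability relative to vehicle DMSO wells taken as 100%.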

SMILES: Cc1cccc(N(C)C(=O)C2C(O)CCN2c2nc(C)cc(C(F)(F)F)c2C#N)c1 (stereo not drawn) + CN(C)c1ccc(Nc2c3ccc(NC(=O)CCN4CCCC4)cc3nc3cc(NC(=O)CCN4CCCC4)ccc23)cc1
- IC50 (second compound 0.0316 µM): > 10000 nM
- IC50 (second compound 0.1 µM): > 10000 nM
- IC50 (second compound 0.316 µM): > 10000 nM
- IC50 (second compound 1 µM): > 10000 nM
- IC50 (second compound 3.16 µM): > 10000 nM
- IC50 (second compound 10 µM): > 10000 nM
- viability, T/C [1]: 106%
- viability, T/C [2]: 106%
- viability, T/C [3]: 101%
- viability, T/C [4]: 105%
- viability, T/C [5]: 103%
- viability, T/C [6]: 99.3%
- viability, T/C [7]: 101%
- viability, T/C [8]: 107%
- viability, T/C [9]: 100%
- viability, T/C [10]: 102%
- viability, T/C [11]: 103%
- viability, T/C [12]: 99.2%
- viability, T/C [13]: 104%
- viability, T/C [14]: 103%
- viability, T/C [15]: 98.5%
- viability, T/C [16]: 102%
- viability, T/C [17]: 108%
- viability, T/C [18]: 98%
- viability, T/C [19]: 104%
- viability, T/C [20]: 90.3%
- viability, T/C [21]: 94.3%
- viability, T/C [22]: 93.5%
- viability, T/C [23]: 96.7%
- viability, T/C [24]: 88.2%
- viability, T/C [25]: 89.9%
- viability, T/C [26]: 78.1%
- viability, T/C [27]: 83.8%
- viability, T/C [28]: 78.6%
- viability, T/C [29]: 87%
- viability, T/C [30]: 74.2%
- viability, T/C [31]: 68.8%
- viability, T/C [32]: 71.7%
- viability, T/C [33]: 76.5%
- viability, T/C [34]: 74.7%
- viability, T/C [35]: 69.8%
- viability, T/C [36]: 63.5%

SMILES: CCCS(=O)(=O)Nc1ccc(F)c(C(=O)c2c[nH]c3ncc(-c4ccc(Cl)cc4)cc23)c1F + Cc1[nH]c2ccc(F)cc2c1-c1nc2c3cccnc3c3ncccc3c2[nH]1
- IC50 (second compound 0.0316 µM): 5430 nM
- IC50 (second compound 0.1 µM): 5230 nM
- IC50 (second compound 0.316 µM): 5230 nM
- IC50 (second compound 1 µM): 5110 nM
- IC50 (second compound 3.16 µM): 5010 nM
- IC50 (second compound 10 µM): 4740 nM
- viability, T/C [1]: 101%
- viability, T/C [2]: 98.1%
- viability, T/C [3]: 94.7%
- viability, T/C [4]: 115%
- viability, T/C [5]: 89.8%
- viability, T/C [6]: 4.88%
- viability, T/C [7]: 97.8%
- viability, T/C [8]: 97.7%
- viability, T/C [9]: 102%
- viability, T/C [10]: 105%
- viability, T/C [11]: 85%
- viability, T/C [12]: 4.75%
- viability, T/C [13]: 97.8%
- viability, T/C [14]: 97.5%
- viability, T/C [15]: 96%
- viability, T/C [16]: 94.3%
- viability, T/C [17]: 84.4%
- viability, T/C [18]: 5.8%
- viability, T/C [19]: 97.1%
- viability, T/C [20]: 85.1%
- viability, T/C [21]: 90.2%
- viability, T/C [22]: 82.8%
- viability, T/C [23]: 81.1%
- viability, T/C [24]: 6.53%
- viability, T/C [25]: 84.4%
- viability, T/C [26]: 74.2%
- viability, T/C [27]: 79.1%
- viability, T/C [28]: 74.2%
- viability, T/C [29]: 82.9%
- viability, T/C [30]: 6.5%
- viability, T/C [31]: 82.7%
- viability, T/C [32]: 85.2%
- viability, T/C [33]: 80.5%
- viability, T/C [34]: 84.5%
- viability, T/C [35]: 73.7%
- viability, T/C [36]: 6.22%

SMILES: Nc1ccn(C2OC(CO)C(O)C2(F)F)c(=O)n1 (stereo not drawn) + Cc1cnc(CNC(=O)c2c(=O)c3ccc(N4CCCN(C)CC4)nc3n3c2sc2ccccc23)cn1
- IC50 (second compound 0.0316 µM): 168 nM
- IC50 (second compound 0.1 µM): 154 nM
- IC50 (second compound 0.316 µM): < 31.6 nM
- IC50 (second compound 1 µM): < 31.6 nM
- IC50 (second compound 3.16 µM): < 31.6 nM
- IC50 (second compound 10 µM): < 31.6 nM
- viability, T/C [1]: 75.9%
- viability, T/C [2]: 52.3%
- viability, T/C [3]: 46.6%
- viability, T/C [4]: 9.53%
- viability, T/C [5]: 6.32%
- viability, T/C [6]: 3.33%
- viability, T/C [7]: 63.6%
- viability, T/C [8]: 61%
- viability, T/C [9]: 32.8%
- viability, T/C [10]: 9.17%
- viability, T/C [11]: 3.78%
- viability, T/C [12]: 2.52%
- viability, T/C [13]: 28.4%
- viability, T/C [14]: 18.3%
- viability, T/C [15]: 10.9%
- viability, T/C [16]: 3.62%
- viability, T/C [17]: 2.32%
- viability, T/C [18]: 1.88%
- viability, T/C [19]: 5.32%
- viability, T/C [20]: 4.52%
- viability, T/C [21]: 2.56%
- viability, T/C [22]: 1.63%
- viability, T/C [23]: 1.61%
- viability, T/C [24]: 1.61%
- viability, T/C [25]: 2.51%
- viability, T/C [26]: 2.77%
- viability, T/C [27]: 1.64%
- viability, T/C [28]: 1.52%
- viability, T/C [29]: 1.19%
- viability, T/C [30]: 0.24%
- viability, T/C [31]: 1.6%
- viability, T/C [32]: 1.03%
- viability, T/C [33]: 1.41%
- viability, T/C [34]: 0.26%
- viability, T/C [35]: 0.21%
- viability, T/C [36]: 0.2%

SMILES: Nc1ccn(C2OC(CO)C(O)C2(F)F)c(=O)n1 (stereo not drawn) + CN(C)c1ccc(Nc2c3ccc(NC(=O)CCN4CCCC4)cc3nc3cc(NC(=O)CCN4CCCC4)ccc23)cc1
- IC50 (second compound 0.0316 µM): 366 nM
- IC50 (second compound 0.1 µM): 383 nM
- IC50 (second compound 0.316 µM): 357 nM
- IC50 (second compound 1 µM): 379 nM
- IC50 (second compound 3.16 µM): 497 nM
- IC50 (second compound 10 µM): 639 nM
- viability, T/C [1]: 99.8%
- viability, T/C [2]: 78.5%
- viability, T/C [3]: 56.7%
- viability, T/C [4]: 26.6%
- viability, T/C [5]: 15.5%
- viability, T/C [6]: 16.1%
- viability, T/C [7]: 98.8%
- viability, T/C [8]: 81.3%
- viability, T/C [9]: 58.3%
- viability, T/C [10]: 22.9%
- viability, T/C [11]: 15%
- viability, T/C [12]: 15.7%
- viability, T/C [13]: 98.5%
- viability, T/C [14]: 81.3%
- viability, T/C [15]: 57%
- viability, T/C [16]: 18.1%
- viability, T/C [17]: 14.6%
- viability, T/C [18]: 15.6%
- viability, T/C [19]: 97%
- viability, T/C [20]: 77.3%
- viability, T/C [21]: 60%
- viability, T/C [22]: 19.4%
- viability, T/C [23]: 16.6%
- viability, T/C [24]: 14.5%
- viability, T/C [25]: 83.2%
- viability, T/C [26]: 75.9%
- viability, T/C [27]: 65.2%
- viability, T/C [28]: 27%
- viability, T/C [29]: 18.3%
- viability, T/C [30]: 16.5%
- viability, T/C [31]: 73.8%
- viability, T/C [32]: 73.4%
- viability, T/C [33]: 60.7%
- viability, T/C [34]: 43.8%
- viability, T/C [35]: 24.3%
- viability, T/C [36]: 21.8%
